In US10913727B2, “Modulators of the integrated stress pathway” (Calico Life Sciences LLC, priority 2016, dated 2021):

System: HEK293T cells carrying the ATF4 luciferase reporter
Assay: ATF4-Luc assay, in vitro model of Vanishing Cell White Matter Disease (VWMD)
Type: cell-based
Details: Homo sapiens, HEK-293T, 1 μg/mL tunicamycin, 7 hours, One Glo luminescence
How it was run: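 Compound at 200 nM and tunicamycin at 1 μg/mL were given together for 7 h to HEK293T cells stably transduced with an ATF4 5′-UTR-driven firefly luciferase reporter. Read-out by luminescence, reported as EC50.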

## O=C(COc1ccc(Cl)c(F)c1)NC12CC(NC(=O)c3cc(C(F)(F)F)ccn3)(C1)C2 [Compound 176, N-{3-[2-(4-chloro-3-fluorophenoxy)acetamido]bicyclo[1.1.1]pentan-1-yl}-4-(trifluoromethyl)pyridine-2-carboxamide]
  EC50: 0.05 to 0.25 µM

## COc1ccnc(C(=O)NC23CC(NC(=O)COc4ccc(Cl)c(F)c4)(C2)C3)c1 [Compound 177, N-{3-[2-(4-chloro-3-fluorophenoxy)acetamido]bicyclo[1.1.1]pentan-1-yl}-4-methoxypyridine-2-carboxamide]
  EC50: 0.25 to 1 µM

## O=C(COc1ccc(Cl)c(F)c1)NC12CC(NC(=O)c3cc(CO)ccn3)(C1)C2 [Compound 178, N-{3-[2-(4-chloro-3-fluorophenoxy)acetamido]bicyclo[1.1.1]pentan-1-yl}-4-(hydroxymethyl)pyridine-2-carboxamide]
  EC50: 0.05 to 0.25 µM

## O=C(COc1ccc(Cl)c(F)c1)NC12CC(NC(=O)c3cc(N4CC(O)C4)ccn3)(C1)C2 [Compound 179, N-{3-[2-(4-chloro-3-fluorophenoxy)acetamido]bicyclo[1.1.1]pentan-1-yl}-4-(3-hydroxyazetidin-1-yl)pyridine-2-carboxamide]
  EC50: 0.25 to 1 µM

## O=C(COc1ccc(Cl)c(F)c1)NC12CC(NC(=O)c3cc(N4CCOCC4)ccn3)(C1)C2 [Compound 180, N-{3-[2-(4-chloro-3-fluorophenoxy)acetamido]bicyclo[1.1.1]pentan-1-yl}-4-(morpholin-4-yl)pyridine-2-carboxamide]
  EC50: 1 to 2 µM

## O=C(COc1ccc(Cl)c(F)c1)NC12CC(NC(=O)c3cc(N4CCCC4)ccn3)(C1)C2 [Compound 181, N-{3-[2-(4-chloro-3-fluorophenoxy)acetamido]bicyclo[1.1.1]pentan-1-yl}-4-(pyrrolidin-1-yl)pyridine-2-carboxamide]
  EC50: 0.25 to 1 µM

## N#Cc1ccnc(C(=O)NC23CC(NC(=O)COc4ccc(Cl)c(F)c4)(C2)C3)c1 [Compound 182, N-{3-[2-(4-chloro-3-fluorophenoxy)acetamido]bicyclo[1.1.1]pentan-1-yl}-4-cyanopyridine-2-carboxamide]
  EC50: 0.05 to 0.25 µM

## O=C(COc1ccc(Cl)c(F)c1)NC12CC(NC(=O)c3cc(O)ccn3)(C1)C2 [Compound 183, N-{3-[2-(4-chloro-3-fluorophenoxy)acetamido]bicyclo[1.1.1]pentan-1-yl}-4-hydroxypyridine-2-carboxamide]
  EC50: 1 to 2 µM

## O=C(COc1ccc(Cl)c(F)c1)NC12CC(NC(=O)c3cnc(O)cn3)(C1)C2 [Compound 184, N-{3-[2-(4-chloro-3-fluorophenoxy)acetamido]bicyclo[1.1.1]pentan-1-yl}-5-hydroxypyrazine-2-carboxamide]
  EC50: > 2 µM

## CC(C)Oc1ccc(C(=O)NC23CC(NC(=O)COc4ccc(Cl)cc4)(C2)C3)nc1 [Compound 185, N-{3-[2-(4-chlorophenoxy)acetamido]bicyclo[1.1.1]pentan-1-yl}-5-[(propan-2-yl)oxy]pyridine-2-carboxamide]
  EC50: 0.25 to 1 µM

## O=C(COc1ccc(Cl)c(F)c1)NC12CC(NC(=O)c3ccncc3)(C1)C2 [Compound 186, N-{3-[2-(4-chloro-3-fluorophenoxy)acetamido]bicyclo[1.1.1]pentan-1-yl}pyridine-4-carboxamide]
  EC50: 0.25 to 1 µM

## O=C(COc1ccc(Cl)c(F)c1)NC12CC(NC(=O)c3ccncn3)(C1)C2 [Compound 187, N-{3-[2-(4-chloro-3-fluorophenoxy)acetamido]bicyclo[1.1.1]pentan-1-yl}pyrimidine-4-carboxamide]
  EC50: 1 to 2 µM

## O=C(COc1ccc(Cl)c(F)c1)NC12CC(NC(=O)c3cncnc3)(C1)C2 [Compound 188, N-{3-[2-(4-chloro-3-fluorophenoxy)acetamido]bicyclo[1.1.1]pentan-1-yl}pyrimidine-5-carboxamide]
  EC50: 0.25 to 1 µM

## O=C(COc1ccc(Cl)c(F)c1)NC12CC(NC(=O)c3cc(N4CC(F)(F)C4)ccn3)(C1)C2 [Compound 189, N-{3-[2-(4-chloro-3-fluorophenoxy)acetamido]bicyclo[1.1.1]pentan-1-yl}-4-(3,3-difluoroazetidin-1-yl)pyridine-2-carboxamide]
  EC50: 0.25 to 1 µM

## COC1CN(c2ccnc(C(=O)NC34CC(NC(=O)COc5ccc(Cl)c(F)c5)(C3)C4)c2)C1 [Compound 190, N-{3-[2-(4-chloro-3-fluorophenoxy)acetamido]bicyclo[1.1.1]pentan-1-yl}-4-(3-methoxyazetidin-1-yl)pyridine-2-carboxamide]
  EC50: 0.25 to 1 µM

## O=C(COc1ccc(Cl)c(F)c1)NC12CC(NC(=O)c3ccc(C(F)F)cc3)(C1)C2 [Compound 191, N-{3-[2-(4-chloro-3-fluorophenoxy)acetamido]bicyclo[1.1.1]pentan-1-yl}-4-(difluoromethyl)benzamide]
  EC50: 0.05 to 0.25 µM

## CC(C)(C)OC(=O)NCc1ccnc(C(=O)NC23CC(NC(=O)COc4ccc(Cl)c(F)c4)(C2)C3)c1 [Compound 192, tert-butyl {[2-({3-[2-(4-chloro-3-fluorophenoxy)acetamido]bicyclo[1.1.1]pentan-1-yl}carbamoyl)pyridin-4-yl]methyl}carbamate]
  EC50: 0.25 to 1 µM

## NCc1ccnc(C(=O)NC23CC(NC(=O)COc4ccc(Cl)c(F)c4)(C2)C3)c1 [Compound 193, 4-(aminomethyl)-N-{3-[2-(4-chloro-3-fluorophenoxy)acetamido]bicyclo[1.1.1]pentan-1-yl}pyridine-2-carboxamide]
  EC50: 0.05 to 0.25 µM

## CC(=O)NCc1ccnc(C(=O)NC23CC(NC(=O)COc4ccc(Cl)c(F)c4)(C2)C3)c1 [Compound 194, 4-(acetamidomethyl)-N-{3-[2-(4-chloro-3-fluorophenoxy)acetamido]bicyclo[1.1.1]pentan-1-yl}pyridine-2-carboxamide]
  EC50: 0.05 to 0.25 µM

## O=C(COc1ccc(Cl)c(F)c1)NC12CCC(NC(=O)c3cnc(C(F)F)cn3)(CC1)C(O)C2 (stereo not shown) [Compound 195, N-{4-[2-(4-chloro-3-fluorophenoxy)acetamido]-2-hydroxybicyclo[2.2.2]octan-1-yl}-5-(difluoromethyl)pyrazine-2-carboxamide]
  EC50: < 0.05 µM

## Cc1ncc(C(=O)NC23CC(NC(=O)COc4ccc(Cl)c(F)c4)(C2)C3)nc1C [Compound 196, N-{3-[2-(4-chloro-3-fluorophenoxy)acetamido]bicyclo[1.1.1]pentan-1-yl}-5,6-dimethylpyrazine-2-carboxamide]
  EC50: 0.25 to 1 µM

## CCc1ccnc(C(=O)NC23CC(NC(=O)COc4ccc(Cl)c(F)c4)(C2)C3)c1 [Compound 197, N-{3-[2-(4-chloro-3-fluorophenoxy)acetamido]bicyclo[1.1.1]pentan-1-yl}-4-ethylpyridine-2-carboxamide]
  EC50: 0.05 to 0.25 µM

## O=C(COc1ccc(Cl)c(F)c1)NC12CC(NC(=O)c3ccccc3)(C1)C2 [Compound 198, N-{3-[2-(4-chloro-3-fluorophenoxy)acetamido]bicyclo[1.1.1]pentan-1-yl}benzamide]
  EC50: 0.05 to 0.25 µM

## O=C(COc1ccc(Cl)c(F)c1)NC12CC(NC(=O)c3ccc(Cl)cc3)(C1)C2 [Compound 199, 4-chloro-N-{3-[2-(4-chloro-3-fluorophenoxy)acetamido]bicyclo[1.1.1]pentan-1-yl}benzamide]
  EC50: 0.05 to 0.25 µM

## O=C(COc1ccc(Cl)c(F)c1)NC12CC(NC(=O)c3cc(/C=C/CO)ccn3)(C1)C2 [Compound 200, N-{3-[2-(4-chloro-3-fluorophenoxy)acetamido]bicyclo[1.1.1]pentan-1-yl}-4-[(1E)-3-hydroxyprop-1-en-1-yl]pyridine-2-carboxamide]
  EC50: 0.05 to 0.25 µM
